# Columns and labels:
# Type in all cases: in vivo
# panel of trained tasters = test: Taste evaluation in water
# Description: A one percent cut of each compound of Examples 1-13 was prepared first. The hydrochloride salts were cut directly into water, while the free base examples were cut into ethanol. Next, 100 ml of a 1 ppm, 10 ppm and 20 ppm solution were prepared. The 1 ppm standards were prepared by addition of 0.0126 ml (cut in ethanol) or 0.01 ml (cut in water) to an amber bottle followed by dilution to 100 g total sample weight using water. The 10 and 20 ppm solutions were prepared similarly, but using 0.126 ml ethanol/0.1 ml water or 0.252 ml ethanol/0.2 ml water of the 1% cuts respectively. Next, the samples were evaluated by a panel of trained tasters.
# bench-top tasting panel [1] = test: Bain marie (hot water bath) test with chicken broth; conditions: hot water bath 150° F. for 4 hours, Example 3 3 ppm, Example 13 2 ppm (table), Example 10 3 ppm, Example 9 2 ppm; for umami strength ranking: MSG 0.20%, 7 panelists
# Description: (§1) Umami evaluations were done in dry noodle seasoning, chicken broth, retorted chicken broth, cheese sauce and salted potato chip applications. Each application was prepared using MSG, the experimental umami tastant and a blank which contained neither MSG nor the experimental umami tastant. Next, using a bench-top tasting panel (consisting of 7 to 14 panelists), panelists were asked to record the sensory attribute differences between the control (blank), the MSG application and the application containing the experimental umami tastant. These sensory attributes include umami, saltiness, bitterness, off-notes, mouth feel attribute, lingering attribute and flavor profile differences.
# Chicken broth was prepared as previously described in example 15. Compounds from Examples 3, 9, 10 and 13 were added to the chicken broth in the concentrations described below and placed in a hot water bath (150° F.) for 4 hours prior to taste evaluation.
# bench-top tasting panel [2] = test: Umami evaluation in retorted chicken broth (Example 20); conditions: Example 3 4 ppm, Example 13 3 ppm, Example 10 4 ppm, Example 9 3 ppm; for umami strength ranking: MSG 0.20%, 9 panelists
# Description: as §1
# The procedure for the preparation of the retorted chicken broth is the same as in example 16. Compounds from Examples 3, 9, 10 and 13 were spiked individually into the chicken broth generating six samples, as described below.
# bench-top tasting panel [3] = test: Umami evaluation on salted potato chips (Example 22); conditions: 1% salted potato chips, Example 3 10 ppm, Example 13 10 ppm, Example 10 6 ppm, Example 9 10 ppm; for umami strength ranking: MSG 0.2%, 9 panelists
# Description: as §1
# The potato chips were prepared as previously described in example 19 and spiked with compounds from Examples 3, 9, 10 and 13 as described below.
SMILES,aroma (panel of trained tasters; 1 ppm in water),taste (panel of trained tasters; 1 ppm in water),taste (panel of trained tasters; 10 ppm in water),aroma (panel of trained tasters; 20 ppm in water),flavor profile described by panelists (bench-top tasting panel [1]),umami strength ranking (bench-top tasting panel [1]),flavor profile described by panelists (bench-top tasting panel [2]),umami strength ranking (bench-top tasting panel [2]),flavor profile described by panelists (bench-top tasting panel [3]),umami strength ranking (bench-top tasting panel [3]),aroma (panel of trained tasters; 10 ppm in water),taste (panel of trained tasters; 20 ppm in water)
"Oc1cccc(SCCc2ccccn2)c1 [Example 10, 3-((2-(PYRIDIN-2-YL)ETHYL)THIO)PHENOL]",green,very weak bitter,"weak: umami, metallic, very weak: bitter,",vegetable,mid/late umami along with a slight bitterness and off notes,MSG>2 ppm example 9>3 ppm Example 10=4 ppm Example 13>Blank chicken broth>3 ppm Example 3,a green pepper aroma and was slightly bitter,MSG>3 ppm example 9>3 ppm Example 13>4 ppm Example 3>Blank retorted chicken broth>4 ppm Example 10,"a nice salty, slight umami profile along with a slight offnote",10 ppm Example 3>10 ppm Example 9>MSG>10 ppm Example 13>blank>6 ppm Example 10,–,–
"COC(=O)c1ccc(SCCc2ccccn2)cc1.Cl [Example 3, METHYL 4-((2-(PYRIDIN-2-YL)ETHYL)THIO)BENZOATE HYDROCHLORIDE]",–,"weak to moderate umami, very weak: bitter,","moderate umami, weak: bitter, metallic,",bloody metallic,"a bitter, limited umami flavor profile",MSG>2 ppm example 9>3 ppm Example 10=4 ppm Example 13>Blank chicken broth>3 ppm Example 3,a sweeter flavor profile with a build up of umami character,MSG>3 ppm example 9>3 ppm Example 13>4 ppm Example 3>Blank retorted chicken broth>4 ppm Example 10,a slight to moderate level of umami along with strong salty profile,10 ppm Example 3>10 ppm Example 9>MSG>10 ppm Example 13>blank>6 ppm Example 10,bloody metallic,"moderate to strong umami, weak: bitter,"
"COc1ccc(SCCc2ccccn2)cc1.Cl [Example 13, 2-(2-((4-METHOXYPHENYL)THIO)ETHYL)PYRIDINE HYDROCHLORIDE]",–,"Weak umami, very weak bitter, astringent","Moderate to strong umami, very weak: bitter,",pyrazine,mid/late umami with some late onset bitterness,MSG>2 ppm example 9>3 ppm Example 10=4 ppm Example 13>Blank chicken broth>3 ppm Example 3,a slightly sweet/slightly bitter profile,MSG>3 ppm example 9>3 ppm Example 13>4 ppm Example 3>Blank retorted chicken broth>4 ppm Example 10,"A good, salty, umami profile",10 ppm Example 3>10 ppm Example 9>MSG>10 ppm Example 13>blank>6 ppm Example 10,–,"Strong umami, very weak bitter"
"COC(=O)c1ccccc1SCCc1ccccn1.Cl [Example 9, METHYL 2-((2-(PYRIDIN-2-YL)ETHYL)THIO)BENZOATE HYDROCHLORIDE]",–,"weak: umami, astringent, very weak: salty,","moderate umami,, weak: salty, astringent, very",–,"a boost in saltiness along with a strong, full umami taste profile",MSG>2 ppm example 9>3 ppm Example 10=4 ppm Example 13>Blank chicken broth>3 ppm Example 3,"a sweet, full umami profile",MSG>3 ppm example 9>3 ppm Example 13>4 ppm Example 3>Blank retorted chicken broth>4 ppm Example 10,"better mouthfeel, slight to moderate umami with an overall clean profile",10 ppm Example 3>10 ppm Example 9>MSG>10 ppm Example 13>blank>6 ppm Example 10,–,"moderate umami, weak: salty, astringent,"

# Reference: patent US10178875B2, “Methods of modifying or imparting taste using organic compounds” (Givaudan, S.A., priority 2013, dated 2019)
